Results from patent publication US20230263825A1, “ANTI-CANCER ACTIVITY OF PERBORATE SALTS” (priority 2020, published 2023).

Assay: Toxicology in rats, oral, histopathology
Assay type: in vivo
Conditions: rat, in vivo, po
Description: After 32 days, the rats were sacrificed and their organs were examined under a microscope.

O.O.O.O.[Na+].[O-]B1OO1 [sodium perborate tetrahydrate]
LIVER Within normal limits, % (1 mg/kg): 100% | LIVER Within normal limits, No Exam (1 mg/kg): 10/10 | LUNG Lymphocytic infiltration, % (1 mg/kg): 0% | LUNG Lymphocytic infiltration, No Exam (1 mg/kg): 0/10 | LUNG Notable or abnormal, % (1 mg/kg): 0% | LUNG Notable or abnormal, No Exam (1 mg/kg): 0/10 | LUNG Pulmonary edema, % (1 mg/kg): 0% | LUNG Pulmonary edema, No Exam (1 mg/kg): 0/10 | LUNG Within normal limits, % (1 mg/kg): 100% | LUNG Within normal limits, No Exam (1 mg/kg): 10/10 | PANCREAS Notable or abnormal, % (1 mg/kg): 0% | PANCREAS Notable or abnormal, No Exam (1 mg/kg): 0/10 | PANCREAS Within normal limits, % (1 mg/kg): 100% | PANCREAS Within normal limits, No Exam (1 mg/kg): 10/10 | SPLEEN Notable or abnormal, % (1 mg/kg): 0% | SPLEEN Notable or abnormal, No Exam (1 mg/kg): 0/10 | SPLEEN Within normal limits, % (1 mg/kg): 100% | SPLEEN Within normal limits, No Exam (1 mg/kg): 10/10 | STOMACH Notable or abnormal, % (1 mg/kg): 0% | STOMACH Notable or abnormal, No Exam (1 mg/kg): 0/10 | STOMACH Within normal limits, % (1 mg/kg): 100% | STOMACH Within normal limits, No Exam (1 mg/kg): 10/10 | HEART Notable or abnormal, % (2 mg/kg): 0% | HEART Notable or abnormal, No Exam (2 mg/kg): 0/10 | HEART Within normal limits, % (2 mg/kg): 100% | HEART Within normal limits, No Exam (2 mg/kg): 10/10 | INTESTINE, Large Notable or abnormal, % (2 mg/kg): 0% | INTESTINE, Large Notable or abnormal, No Exam (2 mg/kg): 0/10 | INTESTINE, Large Within normal limits, % (2 mg/kg): 100% | INTESTINE, Large Within normal limits, No Exam (2 mg/kg): 10/10 | INTESTINE, Small Notable or abnormal, % (2 mg/kg): 0% | INTESTINE, Small Notable or abnormal, No Exam (2 mg/kg): 0/10 | INTESTINE, Small Within normal limits, % (2 mg/kg): 100% | INTESTINE, Small Within normal limits, No Exam (2 mg/kg): 10/10 | KIDNEY Edema, % (2 mg/kg): 0% | KIDNEY Edema, No Exam (2 mg/kg): 0/10 | KIDNEY Notable or abnormal, % (2 mg/kg): 0% | KIDNEY Notable or abnormal, No Exam (2 mg/kg): 0/10 | KIDNEY Within normal limits, % (2 mg/kg): 100% | KIDNEY Within normal limits, No Exam (2 mg/kg): 10/10 | LIVER Fattening, % (2 mg/kg): 0% | LIVER Fattening, No Exam (2 mg/kg): 0/10 | LIVER Infiltration, % (2 mg/kg): 0% | LIVER Infiltration, No Exam (2 mg/kg): 0/10 | LIVER Notable or abnormal, % (2 mg/kg): 0% | LIVER Notable or abnormal, No Exam (2 mg/kg): 0/10 | LIVER Within normal limits, % (2 mg/kg): 100% | LIVER Within normal limits, No Exam (2 mg/kg): 10/10 | LUNG Lymphocytic infiltration, % (2 mg/kg): 0% | LUNG Lymphocytic infiltration, No Exam (2 mg/kg): 0/10 | LUNG Notable or abnormal, % (2 mg/kg): 0% | LUNG Notable or abnormal, No Exam (2 mg/kg): 0/10 | LUNG Pulmonary edema, % (2 mg/kg): 0% | LUNG Pulmonary edema, No Exam (2 mg/kg): 0/10 | LUNG Within normal limits, % (2 mg/kg): 100% | LUNG Within normal limits, No Exam (2 mg/kg): 10/10 | PANCREAS Notable or abnormal, % (2 mg/kg): 0% | PANCREAS Notable or abnormal, No Exam (2 mg/kg): 0/10 | PANCREAS Within normal limits, % (2 mg/kg): 100% | PANCREAS Within normal limits, No Exam (2 mg/kg): 10/10 | SPLEEN Notable or abnormal, % (2 mg/kg): 0% | SPLEEN Notable or abnormal, No Exam (2 mg/kg): 0/10 | SPLEEN Within normal limits, % (2 mg/kg): 100% | SPLEEN Within normal limits, No Exam (2 mg/kg): 10/10 | STOMACH Notable or abnormal, % (2 mg/kg): 0% | STOMACH Notable or abnormal, No Exam (2 mg/kg): 0/10 | STOMACH Within normal limits, % (2 mg/kg): 100% | STOMACH Within normal limits, No Exam (2 mg/kg): 10/10 | HEART Notable or abnormal, % (4 mg/kg): 0% | HEART Notable or abnormal, No Exam (4 mg/kg): 0/10 | HEART Within normal limits, % (4 mg/kg): 100% | HEART Within normal limits, No Exam (4 mg/kg): 10/10 | INTESTINE, Large Notable or abnormal, % (4 mg/kg): 0% | INTESTINE, Large Notable or abnormal, No Exam (4 mg/kg): 0/10 | INTESTINE, Large Within normal limits, % (4 mg/kg): 100% | INTESTINE, Large Within normal limits, No Exam (4 mg/kg): 10/10 | INTESTINE, Small Notable or abnormal, % (4 mg/kg): 0% | INTESTINE, Small Notable or abnormal, No Exam (4 mg/kg): 0/10 | INTESTINE, Small Within normal limits, % (4 mg/kg): 100% | INTESTINE, Small Within normal limits, No Exam (4 mg/kg): 10/10 | KIDNEY Edema, % (4 mg/kg): 0%
